{"source": "paper PMC6915745", "about": "“TRIB3 supports breast cancer stemness by suppressing FOXO1 degradation and enhancing SOX2 transcription” (Nature Communications, 2019)", "key": {"MCF7 cells [1]": {"test_system": "MCF7 cells", "experiment": "Mammosphere (tumorsphere) formation, MCF7 cells", "format": "cell-based, human", "settings": "one week of IL-6, serum-free spheroid suspension culture"}, "TRIB3 [2]": {"test_system": "TRIB3", "experiment": "TRIB3 expression after cytokines or stressors, MCF7 cells (WB)", "format": "cell-based, human", "experimental": "(§1) Cycloheximide (CHX; Sigma Aldrich, R750107) was used as a protein synthesis inhibitor to assess the stability of the existing proteins. To assess protein stability, cells were treated with 20 μM CHX and the proteasome inhibitor MG132 (Sigma Aldrich, R750107) at 10 μM or the autophagy inhibitor BAF (Sigma Aldrich, B1793) at 200 nM for the indicated times. Protein expression was assessed via immunoblot analysis with cell lysates (20–60 μg) prepared in RIPA lysis buffer containing protease inhibitors (Roche) using anti-SOX2 (3529), anti-NANOG (4903), anti-OCT4 (2750), anti-KLF4 (4038), anti-c-Myc (13987), anti-FOXO1 (2880), anti-p-FOXO1 (9461), anti-AKT (4685), anti-p-AKT (4060), anti-β-ACTIN (4970), anti-Ubiquitin (3936), or anti-LaminA/C (4777) antibodies from CST; anti-TRIB3 antibody (ab75846) from Abcam; and anti-Trib3 antibody (PA5-15480) from Thermo Fisher Scientific[59]. All antibodies were used at 1:1000 dilution, with the exception of anti-β-Actin antibodies, which were used at 1:2000 dilution. The protein concentrations were determined by BCA Protein Assay Kits (Pierce). Proteins were separated by SDS-polyacrylamide gel electrophoresis (PAGE) and transferred to polyvinylidene difluoride membrane. […]\n(f, g) The expression of\nTRIB3 in MCF7 cells (top) or MDA-MB-231 cells (bottom) treated with various concentrations of IL6 for\n8 hr (f) or 10 ng/ml IL-6 for different amounts of time (g) was detected by WB. (h) Silencing TRIB3\ndecreased the tumor sphere formation ability of MCF7 cells with or without IL-6 stimulation. […]\nData are shown as the mean ± SEM; P>0.05 was considered not significant (N.S.); *P<0.05, **P<0.01\nand ***P<0.001, compared with the con group in panels d-f. Source data are provided as a Source Data"}, "TRIB3 [3]": {"test_system": "TRIB3", "experiment": "TRIB3 expression after IL-6, MDA-MB-231 cells (WB)", "format": "cell-based", "settings": "various IL-6 concentrations 8 hr, or 10 ng/ml IL-6 for different times", "experimental": "as §1, with “All antibodies were used at 1:1000 dilution, with the exception of anti-β-Actin antibodies, which were used at 1:2000 dilution.” left out, “(Pierce).” for “(Pierce). Proteins were separated by SDS-polyacrylamide gel electrophoresis (PAGE) and transferred to polyvinylidene difluoride membrane.”\n(GSE12790). Relative amounts of TRIB3 transcripts were measured using the 205805_s_at probe. […]\nlevels of TRIB3 mRNA. Metastasis-free survival was determined by Kaplan–Meier analyses, and\nsignificant differences were determined by log-rank tests. […]\n24 hr, glucose deprivation (DG) for 12 hr, and high glucose (HG) for 24 hr was detected by Western […]\n8 hr (f) or 10 ng/ml IL-6 for different amounts of time (g) was detected by WB. […]"}, "MCF7 cells [4]": {"test_system": "MCF7 cells", "experiment": "TRIB3/AKT/FOXO1/SOX2 axis after IL-6, CoCl2 or high glucose, MCF7 cells (WB)", "format": "cell-based, human", "settings": "MCF7 cells, IL-6 12 hr, high glucose 24 hr, WB"}, "TRIB3 [5]": {"test_system": "TRIB3", "experiment": "Relative TRIB3 mRNA in control or FOXO1-silenced MCF7 cells after stressors", "format": "cell-based, human", "settings": "FOXO1-shRNA MCF7 cells, in words"}}, "note": "Entries after “also recorded” stand apart in the source; their conditions may differ."}
{"substance": "IL-6: cytokine interleukin (IL)-6", "values": [{"measurement": "tumorsphere-formation ability", "setting": "MCF7 cells [1]", "value": "increased the tumorsphere-formation ability"}, {"measurement": "TRIB3 expression", "setting": "TRIB3 [2]; cytokines 8 hr, high glucose 24 hr", "value": "enhanced TRIB3 expression in MCF7 cells"}, {"measurement": "TRIB3 expression, dose- and time-dependence", "setting": "TRIB3 [2]; various IL-6 concentrations 8 hr, or 10 ng/ml IL-6 for different times", "value": "enhanced TRIB3 expression in MCF7 and MDA-MB-231 cells in dose-"}, {"measurement": "TRIB3 expression, dose- and time-dependence", "setting": "TRIB3 [3]", "value": "enhanced TRIB3 expression in MCF7 and MDA-MB-231 cells in dose-"}, {"measurement": "expressions of FOXO1 and SOX2", "setting": "MCF7 cells [4]; CoCl2 24 hr", "value": "enhance; also recorded: enhanced expressions of FOXO1 and SOX2"}, {"measurement": "activity of FOXO1 S256", "setting": "MCF7 cells [4]", "value": "reduced the activity of FOXO1^S256"}, {"measurement": "TRIB3 expression in FOXO1-silenced BCCs", "setting": "TRIB3 [5]", "value": "could enhance TRIB3 expression in FOXO1-silenced BCCs"}]}
